Key:
[1] = target: T1, catalytic domain of the human HMG-CoA reductase (Homo sapiens, UniProt P04035); assay: HMG-CoA reductase activity and inhibition assay (Sigma CS-1090 kit, NADPH oxidation at 340 nm); assay type: biochemical; conditions: for HMGR activity (% of control) Mean (SEM): compound at 300 nM, n = 3 independent experiments
T1 construct: containing the catalytic domain of the human HMG-CoA reductase; purchased Sigma-Aldrich CS-1090
T1 sequence (P04035 426-888 limits assumed): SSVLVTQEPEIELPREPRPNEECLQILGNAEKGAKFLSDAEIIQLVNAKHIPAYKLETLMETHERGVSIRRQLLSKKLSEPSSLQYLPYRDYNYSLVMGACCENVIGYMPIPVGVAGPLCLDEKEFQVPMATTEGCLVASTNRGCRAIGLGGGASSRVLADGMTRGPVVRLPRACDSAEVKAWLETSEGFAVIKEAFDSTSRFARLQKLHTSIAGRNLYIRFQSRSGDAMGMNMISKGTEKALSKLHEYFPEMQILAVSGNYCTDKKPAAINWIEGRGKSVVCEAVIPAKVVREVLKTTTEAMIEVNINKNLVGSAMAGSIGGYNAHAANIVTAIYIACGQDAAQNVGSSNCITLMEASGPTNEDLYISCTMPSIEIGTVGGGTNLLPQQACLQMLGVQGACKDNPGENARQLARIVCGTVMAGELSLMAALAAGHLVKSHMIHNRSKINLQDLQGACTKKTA
Procedure: The human HMG-CoA reductase activity and inhibition assays were performed using the HMG-CoA reductase Assay Kit from Sigma-Aldrich (Sigma CS-1090), containing the catalytic domain of the human HMG-CoA reductase. Enzyme activity was determined spectrophotometrically, measuring the oxidation of NADPH at 340 nm. The reaction mixture contained: 0.13 mM HMG-CoA, HMG-CoA reductase, and 50 mM Tris-HCl, (pH 7.5). After 15 min incubation at 37° C., the reaction was started with the addition of 0.13 mM NADPH, and monitored for 30 min. The enzyme activity was determined using the linear domain of the curve. These experiments were generally performed in small reaction volumes to increase throughput. Experiments in larger reaction volumes can improve reliability of obtained values, and are planned.

[2] = target: T2, mitochondrial complex III (Mus musculus, UniProt P00158); assay: Complex III enzyme activity in mitochondrial fractions of C2C12 cells (cytochrome c reduction at 550 nm); assay type: biochemical; conditions: compound at 100 μM; background by antimycin A (2.5 μM); n = 3 independent experiments
T2 construct: the supernatant containing the mitochondria was pelleted at 14,000 g; endogenous in cells; host or cells: C2C12 cells, mitochondrial fraction
Procedure: C2C12 pellets of 20·10^6 cells were snap frozen in liquid nitrogen and kept at −80° C. until use. For preparation of the mitochondrial fractions, tissues and cells were homogenized, resuspended in 10 mM Tris-HCl (pH 7.6), and snap frozen in aliquots as follows: cells were resuspended in 10 mM Tris-HCl and pottered, and sucrose was added (215 mM). The lysate was cleared of unbroken cells by centrifugation (10 minutes 600 g) after which the supernatant containing the mitochondria was pelleted at 14,000 g for 10 minutes, resuspended in 10 mM Tris-HCl (pH 7.6), and snap frozen in aliquots. Complex III enzyme activity was measured spectrophotometrically in duplicate as described before by determination of the cytochrome c reduction at 550 nm (Janssen et al., 2007; Mourmans et al., 1997; Rodenburg, 2011). For these measurements the following substrates were used: decylubiquinol (300 μM) and cytochrome c (50 μM). Background substraction was based on decylubiquinol auto-oxidation rates for FIG. 2, and on antimycin A (2.5 μM) for table 4. The enzyme activity was determined using the linear domain of the curve. These experiments were generally performed in small reaction volumes to increase throughput. Experiments in larger reaction volumes can improve reliability of obtained values, and are planned.

| SMILES | HMGR activity (% of control) Mean (SEM) [1] | complex III activity (% of control) Mean (SEM) [2] | IC50 ([1]; dose-response curve of FIG. 2C, 95%-CI printed in the row below) [nM] |
| --- | --- | --- | --- |
| CC(C)c1nc(N(C)S(C)(=O)=O)nc(-c2ccc(F)cc2)c1/C=C/[C@@H](O)C[C@@H](O)CC(N)=O [rosuvastatin amide, (3R,5S,E)-7-(4-(4-fluorophenyl)-6-isopropyl-2-(N-methylmethylsulfonamido)-pyrimidin-5-yl)-3,5-dihydroxyhept-6-enamide] | 81.57 (10.29) % of control | 94.39 (6.41) % of control | – |
| CC(C)c1nc(N(C)S(C)(=O)=O)nc(-c2ccc(F)cc2)c1/C=C/[C@@H](O)C[C@@H](O)CC(=O)NO [rosuvastatin hydroxamic acid, (3R,5S,E)-7-(4-(4-fluorophenyl)-6-isopropyl-2-(N-methylmethylsulfonamido)pyrimidin-5-yl)-N,3,5-trihydroxyhept-6-enamide] | 72.81 (9.03) % of control | 90.25 (7.98) % of control | – |
| CC[C@H](C)C(=O)O[C@H]1C[C@@H](C)C=C2C=C[C@H](C)[C@H](CC[C@@H](O)C[C@@H](O)CC(=O)O)[C@H]21 [lovastatin carboxylic acid, reference compound] | 68.18 (14.81) % of control | – | – |
| CC[C@H](C)C(=O)O[C@H]1C[C@@H](C)C=C2C=C[C@H](C)[C@H](CC[C@@H]3C[C@@H](O)CC(=O)O3)[C@H]21 [lovastatin lactone, reference compound] | – | 63.21 (3.31) % of control | – |
| CC(C)c1c(C(=O)Nc2ccccc2)c(-c2ccccc2)c(-c2ccc(F)cc2)n1CC[C@@H](O)C[C@@H](O)CC(=O)O [atorvastatin carboxylic acid, reference compound] | 24.39 (8.91) % of control | – | – |
| CC(C)c1nc(N(C)S(C)(=O)=O)nc(-c2ccc(F)cc2)c1/C=C/[C@@H](O)C[C@@H](O)CC(=O)O [rosuvastatin carboxylic acid, reference compound] | 24.09 (3.30) % of control | – | – |
| CC(C)c1c(C(=O)Nc2ccccc2)c(-c2ccccc2)c(-c2ccc(F)cc2)n1CC[C@@H](O)C[C@@H](O)CC(=O)NO [atorvastatin hydroxamic acid, 1-((3R,5R)-3,5-dihydroxy-7-(hydroxyamino)-7-oxoheptyl)-5-(4-fluorophenyl)-2-isopropyl-N,4-diphenyl-1H-pyrrole-3-carboxamide] | 60.87 (4.50) % of control | 105.60 (13.57) % of control | – |
| CNC(=O)C[C@H](O)C[C@H](O)/C=C/c1c(-c2ccc(F)cc2)nc(N(C)S(C)(=O)=O)nc1C(C)C [rosuvastatin methylamide, (3R,5S,E)-7-(4-(4-fluorophenyl)-6-isopropyl-2-(N-methylmethylsulfonamido)-pyrimidin-5-yl)-3,5-dihydroxy-N-methylhept-6-enamide] | 82.82 (12.67) % of control | 83.54 (5.98) % of control | – |
| CC[C@H](C)C(=O)O[C@H]1C[C@@H](C)C=C2C=C[C@H](C)[C@H](CC[C@@H](O)C[C@@H](O)CC(=O)NO)[C@H]21 [lovastatin hydroxamic acid, (1S,3R,7S,8S,8aR)-8-((3R,5R)-3,5-dihydroxy-7-(hydroxyamino)-7-oxoheptyl)-3,7-dimethyl-1,2,3,7,8,8a-hexahydronaphthalen-1-yl (S)-2-methylbutanoate] | 70.19 (6.79) % of control | 92.95 (10.32) % of control | – |
| CC(C)c1c(C(=O)Nc2ccccc2)c(-c2ccccc2)c(-c2ccc(F)cc2)n1CC[C@@H]1C[C@H](O)CC(=O)O1 [atorvastatin lactone, 5-(4-fluorophenyl)-1-(2-((2R,4S)-4-hydroxy-6-oxotetrahydro-2H-pyran-2-yl)ethyl)-2-isopropyl-N,4-diphenyl-1H-pyrrole-3-carboxamide, reference compound] | – | 80.98 (3.75) % of control | – |

Next, values leading:

| HMGR activity (% of control) Mean (SEM) [1] | complex III activity (% of control) Mean (SEM) [2] | IC50 ([1]; dose-response curve of FIG. 2C, 95%-CI printed in the row below) [nM] | SMILES |
| --- | --- | --- | --- |
| 85.05 (10.36) % of control | 53.24 (1.53) % of control | – | CCC(C)(C)C(=O)O[C@H]1C[C@@H](C)C=C2C=C[C@H](C)[C@H](CC[C@@H](O)C[C@@H](O)CC#N)[C@H]21 [simvastatin nitrile, (1S,3R,7S,8S,8aR)-8-((3R,5S)-6-cyano-3,5-dihydroxyhexyl)-3,7-dimethyl-1,2,3,7,8,8a-hexahydronaphthalen-1-yl 2,2-dimethylbutanoate] |
| 110.10 (11.81) % of control | 73.77 (7.57) % of control | – | CCC(C)(C)C(=O)O[C@H]1C[C@@H](C)C=C2C=C[C@H](C)[C@H](CC[C@@H](O)C[C@@H](O)CC(N)=O)[C@H]21 [simvastatin amide, (1S,3R,7S,8S,8aR)-8-((3R,5R)-7-amino-3,5-dihydroxy-7-oxoheptyl)-3,7-dimethyl-1,2,3,7,8,8a-hexahydronaphthalen-1-yl 2,2-dimethylbutanoate] |
| 72.43 (4.97) % of control | 80.37 (5.13) % of control | – | CCC(C)(C)C(=O)O[C@H]1C[C@@H](C)C=C2C=C[C@H](C)[C@H](CC[C@@H](O)C[C@@H](O)Cc3nnn[nH]3)[C@H]21 [simvastatin tetrazole, (1S,3R,7S,8S,8aR)-8-((3R,5S)-3,5-dihydroxy-6-(1H-tetrazol-5-yl)hexyl)-3,7-dimethyl-1,2,3,7,8,8a-hexahydronaphthalen-1-yl 2,2-dimethylbutanoate] |
| 73.44 (2.81) % of control | 74.37 (4.20) % of control | – | CCC(C)(C)C(=O)O[C@H]1C[C@@H](C)C=C2C=C[C@H](C)[C@H](CC[C@@H](O)C[C@@H](O)Cc3nc(=O)o[nH]3)[C@H]21 [simvastatin oxo-oxadiazole, (1S,3R,7S,8S,8aR)-8-((3R,5)-3,5-dihydroxy-6-(5-oxo-2,5-dihydro-1,2,4-oxadiazol-3-yl)hexyl)-3,7-dimethyl-1,2,3,7,8,8a-hexahydronaphthalen-1-yl 2,2-dimethylbutanoate] |
| 92.40 (8.84) % of control | 50.43 (5.71) % of control | – | CCC(C)(C)C(=O)O[C@H]1C[C@@H](C)C=C2C=C[C@H](C)[C@H](CC[C@@H](O)C[C@@H](O)CC(=O)NC)[C@H]21 [simvastatin methylamide, (1S,3R,7S,8S,8aR)-8-((3R,5R)-3,5-dihydroxy-7-(methylamino)-7-oxoheptyl)-3,7-dimethyl-1,2,3,7,8,8a-hexahydronaphthalen-1-yl 2,2-dimethylbutanoate] |
| 102.50 (7.87) % of control | 95.96 (11.43) % of control | – | CC(C)c1nc(N(C)S(C)(=O)=O)nc(-c2ccc(F)cc2)c1/C=C/[C@@H](O)C[C@@H](O)CC#N [rosuvastatin nitrile, N-(5-((3S,5S,E)-6-cyano-3,5-dihydroxyhex-1-en-1-yl)-4-(4-fluorophenyl)-6-isopropylpyrimidin-2-yl)-N-methylmethanesulfonamide] |
| 63.10 (10.70) % of control | – | 39 | CCC(C)(C)C(=O)O[C@H]1C[C@@H](C)C=C2C=C[C@H](C)[C@H](CC[C@@H](O)C[C@@H](O)CC(=O)O)[C@H]21 [simvastatin carboxylic acid, reference compound] |
| – | 44.55 (6.27) % of control | – | CCC(C)(C)C(=O)O[C@H]1C[C@@H](C)C=C2C=C[C@H](C)[C@H](CC[C@@H]3C[C@@H](O)CC(=O)O3)[C@H]21 [simvastatin lactone, reference compound] |

— patent publication US20190038588A1, “NOVEL CLASS OF COMPOUNDS FOR THE TREATMENT OF CARDIOVASCULAR DISEASE” (STICHTING KATHOLIEKE UNIVERSITEIT, priority 2016, published 2019)
